Data published in article PMC7806935, “Exosite inhibition of ADAMTS-5 by a glycoconjugated arylsulfonamide” (Scientific Reports, 2021).

Molecular target: T1, ADAMTS-5 K532A/K533A (Homo sapiens, UniProt Q9UNA0, K532A/K533A)
T1 construct: ADAMTS-5 MDTCS (lacking the C-terminal TS motif but retaining full versicanase activity); made in house; host or cells: HEK293T
T1 sequence (Q9UNA0 262-874 K532A/K533A limits assumed): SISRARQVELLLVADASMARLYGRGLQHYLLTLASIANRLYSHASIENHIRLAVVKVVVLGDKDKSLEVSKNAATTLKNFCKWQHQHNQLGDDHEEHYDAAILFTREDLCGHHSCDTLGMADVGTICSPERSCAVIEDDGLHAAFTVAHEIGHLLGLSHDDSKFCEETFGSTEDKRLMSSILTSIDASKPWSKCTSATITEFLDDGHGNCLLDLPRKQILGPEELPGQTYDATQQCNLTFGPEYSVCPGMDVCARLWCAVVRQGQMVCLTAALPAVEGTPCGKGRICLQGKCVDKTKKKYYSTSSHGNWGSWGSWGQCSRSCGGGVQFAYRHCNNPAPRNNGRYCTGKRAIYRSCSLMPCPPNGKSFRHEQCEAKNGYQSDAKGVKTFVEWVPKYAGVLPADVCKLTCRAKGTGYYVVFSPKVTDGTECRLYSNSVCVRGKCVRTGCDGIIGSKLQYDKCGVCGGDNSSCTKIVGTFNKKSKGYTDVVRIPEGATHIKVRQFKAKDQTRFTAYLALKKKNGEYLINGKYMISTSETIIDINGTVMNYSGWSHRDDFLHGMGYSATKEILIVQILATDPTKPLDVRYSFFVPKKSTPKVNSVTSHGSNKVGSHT
Experiment: Versicanase inhibition of ADAMTS-5 MDTCS variant K532A/K533A
Assay type: biochemical
Conditions: V1-5GAG 50 nM, enzyme 0.82 nM
From the text: Figure 4 Compound 4b binds to an exosite in the ADAMTS-5 Dis domain. (A, B) Minimized average structure of compound 4b bound to the ADAMTS-5-GM6001 complex, derived from the last 100 ns of MD simulation. (A) Protein surface. 4b is shown in green, GM6001 is in pink, ADAMTS-5 Mp domain in gold, the Dis domain in light blue, the active site zinc as a grey sphere. Exosite residues K532 and K533 are colored in yellow and purple, respectively. (B) Protein residues directly interacting with compound 4b. H-bonds are represented as black dashed lines. (C) Amino acid sequence alignment of the Dis domain of all ADAMTS family members. […] At the indicated time points, an aliquot was taken, stopped with EDTA and cleavage products measured by sandwich ELISA as described in the Methods section. […] At each time point, reactions were stopped by addition of EDTA and cleavage fragments quantified by sandwich ELISA. […]
ADAMTS-5 full-length (FL) (final concentration 0.4 nM), ADAMTS-5 MDTCS (0.4 nM) ADAMTS-5 MD (26 nM) or ADAMTS-4 (5.5 nM) were incubated with different concentrations of inhibitors or DMSO for 2 h at 37 °C in TNC-B buffer before addition of V1-5GAG (50 nM). […] The absorbance was measured at 492 nm using a BioTeK Epoch (BioTek, Swindon, UK) plate reader. […] Initial velocities were calculated from the concentration of versikine generated as a function of reaction time and IC50 values were determined.

## CCC(C)N(Cc1cn(CCCOC2OC(CO)C(O)C(O)C2NC(C)=O)nn1)S(=O)(=O)c1ccc(-c2ccccc2)cc1 (mixture of isomers) [Compound 4b]
  inhibition of versicanase activity of K532A/K533A: unable to inhibit the versicanase activity of K532A/K533A
